Patent US12502374B2, “Composition for preventing, alleviating, or treating inflammatory disease containing isookanin or salt thereof as active ingredient” (BioSpectrum, Inc., priority 2020, dated 2025)

What was measured:
Janus kinase 1 = Janus kinase 1 (Homo sapiens, UniProt P23458); assay: Janus kinase 1 activity inhibition, HTRF KinEASE-TK kit (TR-FRET); format: biochemical; conditions: FIG. 1
Procedure: The effect of isookanin on the inhibition of Janus kinase 1 activity was measured using the HTRF KinEASE-TK kit (Cisbio, France). HTRF is a time-resolved fluorescence resonance energy transfer technology (TR-FRET) analysis method, which is applied to high-throughput screening (HTS) and is one of the methods widely used in drug development. From general cytokine measurement, enzyme activity, protein phosphorylation, protein-protein interaction, cAMP measurement, and the like can be measured by fluorescence through acceptor/donor reaction, and HTRF has an advantage in that, since measurement is carried out in two wavelength regions, it is possible to reduce interference from buffers and media. All components of the HTRF KinEase™-TK kit were handled according to the instructions. For kinases, the ability of a test substance to inhibit kinase activity is measured by allowing a kinase to react with an appropriate substrate in the presence or absence of a sample and capturing the phosphorylated substrate by a detection reagent. Briefly, the following two steps performed.
A kinase is allowed to react with an appropriate substrate in the presence and absence of a sample. Enzyme buffer is used as a control (−) instead of the sample, and the group treated with 100 nM of loxolitinib is used as a positive control. […]
Step 2. Fluorescence Detection […]

recombinant kallikrein-5 = biological target: T1, recombinant kallikrein-5 (Homo sapiens, UniProt Q9Y337); assay: Kallikrein-5 enzymatic activity, fluorescent substrate Boc-Val-Pro-Arg-AMC; format: biochemical; conditions: 10 and 20 ppm; FIG. 2
T1 construct: purchased R&D Systems, USA
T1 sequence (Q9Y337 23-293): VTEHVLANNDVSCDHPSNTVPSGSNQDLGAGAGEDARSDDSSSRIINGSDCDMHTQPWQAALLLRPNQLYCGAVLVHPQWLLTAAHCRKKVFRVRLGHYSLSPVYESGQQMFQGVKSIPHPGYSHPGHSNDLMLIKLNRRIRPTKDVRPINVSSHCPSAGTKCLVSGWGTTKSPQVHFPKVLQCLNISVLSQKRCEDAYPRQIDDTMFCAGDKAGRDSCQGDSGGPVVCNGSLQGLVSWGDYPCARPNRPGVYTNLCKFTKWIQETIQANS
Procedure: To measure the enzymatic activity of kallikrein-5 which is a trypsin-like proteolytic enzyme present in skin keratinocytes, recombinant kallikrein-5 (R&D Systems, USA) was allowed to react with the fluorescently labeled substrate Boc-Val-Pro-Arg-AMC (R&D Systems, USA), and the enzymatic activity was measured. 50 μl of 2 μg/ml recombinant kallikrein-5 was treated with different concentrations (10 and 20 ppm) of isookanin and then allowed to react at room temperature for 10 minutes, and then 50 μl of 800 μM kallikrein-5 substrate was added thereto, followed by measurement in kinetic mode at 380 nm/480 nm fluorescence for 5 minutes. As a positive control, the trypsin inhibitor Leupeptin (Sigma Aldrich, USA) was used, and as a negative control, non-treated recombinant kallikrein was used. For evaluation of the degree of activity, based on the value obtained by subtracting the lowest fluorescence value from the highest fluorescence value among the measurement values under each condition, the fluorescence value of the group treated with isookanin was compared with the fluorescence value of the group not treated with isookanin, and the results are shown in FIG. 2.

COX-2 promoter = assay: LPS-induced COX-2 promoter luciferase reporter in RAW 264.7 macrophages; format: cell-based, mouse; conditions: 1, 5 and 10 ppm, LPS 100 ng/mL, FIG. 4
Procedure: Mouse macrophages (RAW 264.7) were seeded in a 24-well microplate at a density of about 2×10^5 cells per well, and cultured in an incubator for 24 hours at 37° C. under 5% CO2. The RAW264.7 cells were transfected with the COX-2 promoter luciferase reporter plasmid, and then treated with 1, 5, and 10 ppm of isookanin, and then treated with LPS (100 ng/mL). After culturing, the cell culture was harvested. Subsequently, luciferase enzyme activity was measured using a microplate reader (Sunrise, Tecan, Switzerland). Mouse macrophages not treated with isookanin and LPS were used as a negative control (−).

PGE2 = assay: UV-induced PGE2 secretion in human epidermal keratinocytes (ELISA); format: cell-based; conditions: 1, 5 and 10 ppm, UVB 20 mJ/cm^2, FIG. 6
Procedure: Human epidermal keratinocytes (HEKs) were seeded in a 24-well microplate at a density of about 2×10^5 cells per well, and cultured in an incubator for 24 hours at 37° C. under 5% CO2. Thereafter, the cells were treated with each of 1, 5, and 10 ppm of isookanin, and then irradiated with UV light (UVB 20 mJ/cm^2), and then the cell culture medium was collected. Next, the secretion level of PGE2 was measured using an ELISA kit. As a negative control (−), human keratinocytes not treated with isookanin and UV light (UVB) were used.

HMEC-1 [1] = assay: PGE2-induced vascular endothelial cell proliferation (MTT assay); format: cell-based, human; conditions: 1 hour pretreatment; 20 μM PGE2, 48 hours; FIG. 8
Procedure: Human microvascular […] cells (HMEC-1, ATCC, USA) were cultured in MCDB131 medium (Thermo Fisher, USA) containing 10 ng/ml EGF, 1 μg/mL cortisol, 10 mM glutamine and 10% FBS, and then seeded in a 24-well plate at a density of 5×10^4 cells per well and cultured in an incubator for 24 hours at cultured at 37° C. under 5% CO2. After culturing, each well was pretreated with each concentration of isookanin for 1 hour, and then treated with 20 μM PGE2 and cultured again for 48 hours. After 48 hours of culturing, the degree of vascular cell proliferation was measured using MTT assay, and the results are shown in FIG. 8.

HMEC-1 [2] = assay: PGE2-induced vascular endothelial cell migration (scratch assay); format: cell-based, human; conditions: 2 hours pretreatment; 20 μM PGE2, 24 hours; FIG. 9
Procedure: Human vascular endothelial cells (HMEC-1) were seeded in a 12-well plate at a density of 2×10^5 cells per well and cultured in an incubator for 24 hours at 37° C. under 5% CO2. After the cells in each well were grown to 80% confluency, the central part of each well was scratched using a yellow pipette tip. Next, each well was pretreated with each concentration of isookanin for 2 hours and then treated with 20 μM PGE2 and incubated for 24 hours. As a negative control, 100 ng/ml of VEGF was used. After 24 hours of incubation, the degree of vascular cell migration was observed using a microscope, and the results were photographed with a microscope camera and shown in FIG. 9.

Chain of Janus kinase 1 (P23458 whole entry, species assumed): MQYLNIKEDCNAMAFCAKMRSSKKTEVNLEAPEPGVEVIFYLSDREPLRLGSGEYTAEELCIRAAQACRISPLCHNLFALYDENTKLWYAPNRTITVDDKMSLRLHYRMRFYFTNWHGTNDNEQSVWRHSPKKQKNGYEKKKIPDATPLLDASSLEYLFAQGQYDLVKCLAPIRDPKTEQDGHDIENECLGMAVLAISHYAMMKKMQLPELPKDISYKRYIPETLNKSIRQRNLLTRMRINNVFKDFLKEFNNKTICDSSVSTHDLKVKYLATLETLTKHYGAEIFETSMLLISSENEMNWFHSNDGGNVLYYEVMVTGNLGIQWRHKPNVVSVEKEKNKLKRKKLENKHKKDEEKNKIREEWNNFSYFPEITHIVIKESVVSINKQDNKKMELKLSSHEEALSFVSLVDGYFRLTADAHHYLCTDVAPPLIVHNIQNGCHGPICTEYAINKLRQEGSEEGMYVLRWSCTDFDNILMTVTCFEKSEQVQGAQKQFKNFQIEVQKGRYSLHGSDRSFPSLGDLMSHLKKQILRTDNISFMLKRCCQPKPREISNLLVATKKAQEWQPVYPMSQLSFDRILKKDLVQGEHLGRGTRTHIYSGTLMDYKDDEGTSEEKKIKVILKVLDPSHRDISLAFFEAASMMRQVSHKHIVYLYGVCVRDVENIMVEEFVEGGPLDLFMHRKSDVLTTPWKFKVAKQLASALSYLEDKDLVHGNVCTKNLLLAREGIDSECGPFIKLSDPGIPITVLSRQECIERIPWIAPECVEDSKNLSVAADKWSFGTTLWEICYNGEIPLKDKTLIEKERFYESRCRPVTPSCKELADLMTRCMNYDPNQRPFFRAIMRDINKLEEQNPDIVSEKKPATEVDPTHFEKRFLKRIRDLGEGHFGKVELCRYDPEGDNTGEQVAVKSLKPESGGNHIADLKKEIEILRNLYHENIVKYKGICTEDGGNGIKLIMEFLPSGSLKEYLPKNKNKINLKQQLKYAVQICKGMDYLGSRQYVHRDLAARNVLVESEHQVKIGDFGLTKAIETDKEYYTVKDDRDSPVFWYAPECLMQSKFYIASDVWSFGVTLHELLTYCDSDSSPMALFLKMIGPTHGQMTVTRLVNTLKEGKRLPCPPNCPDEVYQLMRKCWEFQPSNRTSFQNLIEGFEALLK

With `O=C1C[C@@H](c2ccc(O)c(O)c2)Oc2c1ccc(O)c2O` [isookanin] the “inhibition of Janus kinase 1 activity” value (Janus kinase 1) was “significantly inhibited”, the “inhibition of kallikrein-5 activity” value (recombinant kallikrein-5) was “inhibitory effect on kallikrein-5 activity in a concentration-dependent manner” and the “inhibition of LPS-induced activation of COX-2 promoter” value (COX-2 promoter) was “inhibiting the LPS-induced activation of COX-2 promoter in a concentration-dependent manner”. For the same molecule, the “inhibition of UV-induced PGE2 expression” value (PGE2) was “inhibiting the expression of PGE2 in a concentration-dependent manner”, the “inhibition of human vascular endothelial cell proliferation induced by PGE2” value (HMEC-1 [1]) was “effectively inhibiting human vascular endothelial cell proliferation induced by PGE2” and the “inhibition of human vascular endothelial cell migration induced by PGE2” value (HMEC-1 [2]) was “effectively inhibiting human vascular endothelial cell migration induced by PGE2”.
